# System: HSV-1
# Assay: Plaque assay of Vero cells infected with HSV-1
# Assay type: cell-based
# Parameters: # Plaques: dose or concentration left out as unconfirmed
# Details: MOI .001; 12 hours infection, then ACV or ML324 for 48 hours
# Procedure: ML324 was ˜75-fold more efficient than DMOG. Additionally, ML324 (i) reduced viral yields in a dose-dependent manner (˜5 logs at 50 mM, FIG. 14); (ii) blocked viral IE gene transcription and reduced viral yields when cells were infected at high multiplicity of infection (MOI; FIGS. 15 and 16); and (iii) suppressed IE gene transcription, even when added at times after infection (>50% reduction at 2 hours after infection; FIG. 17). As further evidence for the efficacy of ML324, cells were infected with HSV to allow for a productive cycle of infection, followed by treatment with DMSO, ACV, or ML324.
row,SMILES,# Plaques
1,"Nc1nc2c(ncn2COCCO)c(=O)[nH]1 [ACV, acyclovir, reference compound]",1

# Same assay, conditions: MOI .01; 12 hours infection, then ACV or ML324 for 48 hours
row,SMILES,# Plaques
1,"Nc1nc2c(ncn2COCCO)c(=O)[nH]1 [ACV, acyclovir, reference compound]",8

# System: HSV-1
# Assay: not given
# Assay type: cell-based, Balb/c mice
# Details: 2 mM DMOG, 2 mM TCP or ACV, 48 hours; FIG. 11
# Procedure: FIG. 18 is a dot plot showing latently infected ganglia that were explanted in the presence of DMSO, ACV (100 mM), or ML324 (50 mM) for 48 hrs. Viral yields were determined from one half of each ganglia at 48 hrs (DMSO, ACV, ML324) and from the other half of each ganglia after drug reversal for an additional 72 hrs (ACV-R, ML324-R) [Wilcoxon matched pairs signed rank test, ACV vs ACV-R n=8, ML324 vs ML324-R n=10]. Data are means±SEM.
# FIG. 19 is a dot plot showing viral yields from HSV-1 latently infected trigeminal ganglia that were explanted in the presence of DMSO, or 2 mM DMOG or 50 mM ML324 for 48 hours (DMSO versus DMOG: P=0.0015, Wilcoxon matched-pairs signed rank test; n=12; DMSO versus ML324: P<0.0001; n=20). Data are means±SEM.
# Viral yields decrease from HSV-1 latently infected ganglia explanted in the presence of LSD1 or JMJD2 inhibitors (FIG. 11). Balb/c mice were infected with 5×10^6 PFU HSV-1 (strain F) per eye after corneal scarification. Latently infected mice were sacrificed 45 days post clearance of the primary infection and trigeminal ganglia were rapidly explanted into culture in the presence of 2 mM DMOG, 2 mM TCP, or control (DMSO or ACV, acyclovir) for 48 hours. Post explant incubation, the ganglia were homogenized and briefly sonicated. The reactivated viral yield of each ganglia was determined by titering the clarified supernatant on Vero cells. Statistical comparisons were made using Wilcoxon signed rank test (paired ganglia) with a statistical significance of <0.05. Each data point was the result of a single ganglia divided and treated in the presence and absence of DMSO and DMOG or DMSO and TCP. Therefore, a Wilcoxon signed rank test was used to assess differences between each treated and untreated sample. The significant difference between DMSO control and DMOG was p=0.0018. This test used an exact p-value for small sample sizes with an a level of 0.05. n=20. Analyses were made using Prism (V5.0a) and are expressed as the mean+/−s.e.m.
row,SMILES,viral yield from explanted latently infected ganglia
1,"Nc1nc2c(ncn2COCCO)c(=O)[nH]1 [ACV, acyclovir, reference compound]",No viral yields
2,"N[C@@H]1C[C@H]1c1ccccc1 (racemic) [TCP, tranylcypromine]",decreases

# Molecular target: T1, JMJD2E (Homo sapiens, UniProt B2RXH2)
# T1 sequence (B2RXH2 1-506): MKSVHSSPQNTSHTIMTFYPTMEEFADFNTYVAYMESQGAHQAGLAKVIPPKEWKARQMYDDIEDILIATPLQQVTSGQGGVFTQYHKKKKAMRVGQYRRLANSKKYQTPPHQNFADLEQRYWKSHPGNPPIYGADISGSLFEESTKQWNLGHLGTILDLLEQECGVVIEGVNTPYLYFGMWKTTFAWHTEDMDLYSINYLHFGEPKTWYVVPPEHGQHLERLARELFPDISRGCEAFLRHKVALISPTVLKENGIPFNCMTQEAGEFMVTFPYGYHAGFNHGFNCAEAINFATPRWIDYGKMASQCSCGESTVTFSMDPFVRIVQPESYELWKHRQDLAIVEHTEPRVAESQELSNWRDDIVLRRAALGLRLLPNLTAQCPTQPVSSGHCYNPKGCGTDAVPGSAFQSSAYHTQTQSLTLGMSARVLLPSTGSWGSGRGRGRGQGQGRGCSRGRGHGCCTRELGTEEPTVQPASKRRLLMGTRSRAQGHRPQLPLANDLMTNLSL
# Assay: AlphaLISA assay, JMJD2E histone demethylase inhibition
# Assay type: biochemical
# Details: not given
row,SMILES,IC50 [nM]
1,NC(=O)c1cccc(-c2cnc3c(O)ccc(C(=O)O)c3c2)c1 [Compound 28],4900
2,N[C@@H]1CCN(c2cnc3c(O)ccc(C(=O)O)c3c2)C1 [Compound 16],1170
3,O=C(O)c1ccc(O)c2ncc(C3CCNCC3)cc12 [Compound 12],1330
4,CN1CCN(c2cnc3c(O)ccc(C(=O)O)c3c2)CC1 [Compound 10],2250
5,O=C(O)c1ccc(O)c2ncc(N3CC4CNCC4C3)cc12 (stereo not shown) [Compound 17],1470
6,O=C(O)c1ccc(O)c2ncc(N3CCOCC3)cc12 [Compound 11],1740
7,O=C(O)c1ccc(O)c2ncc(NC3CCNC3)cc12 (stereo not shown) [Compound 15],1760
8,NC1CCN(c2cnc3c(O)ccc(C(=O)O)c3c2)CC1 [Compound 13],1570
9,O=C(O)c1ccc(O)c2ncc(N3CCCC3)cc12 [Compound 14],2240

# Same assay, conditions: Table 2; JMJD2E; AlphaLISA, in triplicate; read-out: IC50
row,SMILES,IC50 [nM]
1,O=C(NCCCN1CCNCC1)c1cccc(-c2cc(O)c3ncccc3c2)c1 [Compound 7],1240
2,CN(C)CC1CCN(C2CCN(C(=O)c3cccc(-c4cc(O)c5ncccc5c4)c3)CC2)CC1 [Compound 8],990
3,CN(C)CCCNC(=O)c1ccc(-c2cnc3c(O)cccc3c2)cc1 [Compound 3],12000
4,CN(C)CCCN1CCCN(C(=O)c2cccc(-c3cc(O)c4ncccc4c3)c2)C1 [Compound 9],1520
5,O=C(O)c1ccnc2c(O)cccc12 [Compound 2],3070
6,O=C(c1ccc(-c2cc(O)c3ncccc3c2)cc1)N1CCNCC1 [Compound 5],1620
7,CN1CCN(C(=O)c2cccc(-c3cc(O)c4ncccc4c3)c2)CC1 [Compound 6],4270

# Same assay, conditions: Table 3; JMJD2E; AlphaLISA, in triplicate; read-out: IC50
row,SMILES,IC50 [nM]
1,O=C(O)c1ccc(O)c2ncc(N3CCCCC3CCc3ccccn3)cc12 (stereo not shown) [Compound 22],4660
2,CN(C)CCCNC(=O)c1ccc(-c2cnc3c(O)ccc(C(=O)O)c3c2)cc1 [Compound 25],1410
3,O=C(O)c1ccc(O)c2ncc(-c3ccc(C(=O)N4CCNCC4)cc3)cc12 [Compound 23],3610
4,O=C(O)c1ccc(O)c2ncc(NCC3CCCN(CCc4ccccc4)C3)cc12 (stereo not shown) [Compound 21],2100
5,O=C(O)c1ccc(O)c2ncc(N3CCN(Cc4ccccc4)CC3)cc12 [Compound 18],4980
6,CN1CCN(C(=O)c2ccc(-c3cnc4c(O)ccc(C(=O)O)c4c3)cc2)CC1 [Compound 24],4630
7,O=C(O)c1ccc(O)c2ncc(-c3cccc(N4CCOCC4)c3)cc12 [Compound 20],5110
8,O=C(O)c1ccc(O)c2ncc(-c3ccc(N4CCOCC4)cc3)cc12 [Compound 19],4180
9,O=C(O)c1ccc(O)c2ncc(N3CCCN(CCCc4ccncc4)CC3)cc12 [Compound 27],1710
10,O=C(O)c1ccc(O)c2ncc(N3CCCN(C4CCCC4)CC3)cc12 [Compound 26],2080

# System: HSV-1
# Assay: not given
# Assay type: cell-based, mouse
# Details: 100 mM ACV or 50 mM ML324, 48 hours
row,SMILES,isolated UL29+ neurons relative to DMSO
1,"Nc1nc2c(ncn2COCCO)c(=O)[nH]1 [ACV, acyclovir, reference compound]",reduced number

# Reference: patent publication US8871789B2, “Method of preventing or treating viral infection” (The United States of America, as represented by the …, priority 2010, dated 2014)
